Structures are written as SMILES. “Also recorded” adds a separate entry of the source.

Assay [1] concerns NIH3T3 cells expressing v-Src. In words: Anti-phosphotyrosine blots of pyrazolopyrimidine treated NIH3T3 cells (Examples 18-19). It counts as cell-based. The note with it: FIG. 12B two left lanes.
Experimental: Anti-phosphotyrosine blots of pyrazolo pyrimidine (2-6) (25 μM) treated NIH3T3 cells expressing v-Src kinase were performed by lysing cells in modified RIPA buffer according to the method of Coussens et al. (1985) Biol. 2753-2763. Cells were also treated for various times before lysis and antiphosphotyrosine detection. Proteins were separated by 12.5% SDS-PAGE and transferred to Protran BA85 (Schleicher-Schuell). The blot was probed with the antiphosphotyrosine monoclonal antibody 4G10 (obtained from Dr. Brian Druker, Oregon Health Sciences Center) and the bound antibody was detected via enhanced chemiluminescence (Pierce) following treatment with HRP-coupled goat anti-mouse antibody (VWR) according to the manufacturer's instructions.
The assays were performed by making anti-phosphotyrosine blots of pyrazolopyrimidine (26) (25 μM) treated NIH3T3 cells expressing either v-Src or v-Src (I338G) kinases were performed by lysing cells in modified RIPA buffer according to the method of Coussens et al. (1985) Biol. 2753-2763. […]
(§4) The blot was probed with the anti-phosphotyrosine monoclonal antibody 4G10 and the bound antibody was detected via enhanced chemiluminescence (Pierce) following treatment with HRP-coupled goat-anti-mouse antibody (VWR) according to the manufacturer's instructions.
The subject of assay [2] is NIH3T3 cells expressing v-Src (I338G). The assay can be described thus: Anti-phosphotyrosine blots of pyrazolopyrimidine treated NIH3T3 cells (Example 19). The class given is cell-based.
Experimental: The assays were performed by making anti-phosphotyrosine blots of pyrazolopyrimidine (26) (25 μM) treated NIH3T3 cells expressing either v-Src or v-Src (I338G) kinases were performed by lysing cells in modified RIPA buffer according to the method of Coussens et al. (1985) Biol. 2753-2763. Cells were also treated for various times (in a cell culture CO2 incubator) before lysis and anti-phosphotyrosine detection. Proteins were separated by 12.5% SDS-PAGE and transferred to Protran BA85 (Schleicher-Schuell).
as §4
For another assay, the target named is wild-type Fyn (Homo sapiens, UniProt P06241). The assay can be described thus: Peptide phosphorylation assay with [γ-32P]ATP (Example 13). It counts as biochemical. The note with it: purified kinase; read-out: IC50 for inhibition of wild-type Fyn. An excerpt:
To identify compounds that would not inhibit any existing cellular kinases, Applicant screened the panel of synthetic pyrazolo pyramidine analogs (1-6) against two closely related purified tyrosine kinases, v-Src and Fyn, in a peptide phosphorylation assay using [γ-^32P]

Another assay deals with T1, WT Fyn (Homo sapiens, UniProt P06241).
T1 construct: GST; made in house; host or cells: E. coli DH5α (pGEX-KT)
In words: In vitro kinase inhibition assay. It counts as biochemical.

For assay [3], the system named is B cell receptor (BCR) mediated phosphorylation cascade in murine spleen cells. The assay can be described thus: Murine B cell assay (B cell receptor mediated tyrosine phosphorylation). The class given is cell-based. The note with it: 100 μM in […] DMSO, anti-IgM stimulated murine spleen cells. As for the experimental part: Splenic lymphocytes were isolated from 6-20 week old Balb/c or C57/B6 mice. The cells were washed out of the spleen into RPMI media containing 1 mg/ml DNase I and the red blood cells were lysed in 17 mM tris-ammonium chloride (pH 7.2). Approximately 4×10^6 cells were incubated at 37° C. for thirty minutes with 100 μM of (3g) or (2) in 1.1% DMSO. B cell stimulation was initiated by the addition of […] of goat anti-mouse IgM (Jackson ImmunoResearch) and subsequent incubation for five minutes at 37° C. The cells were isolated by centrifugation (13,000 rpm, two minutes) and lysed (lysis buffer: 1% Triton x-100, 50 mM Tris (pH 7.4), 2 mM EDTA, 150 mM NaCl, 100 mM PMSF, 2 mM sodium orthovanadate, 10 mg/ml leupeptin, 10 mg/ml apoprotin). The cellular debris was then pelleted at 13,000 rpm for fifteen minutes. Cellular proteins were separated by 10% polyacrylamide gel electrophoresis and transferred to a nitrocellulose membrane by Western blotting. Phosphotyrosine containing proteins were visualized by immunoblotting with anti-phosphotyrosine antibody (Upstate Biotechnology).

Assay [4] deals with I338G v-Src transformed NIH-3T3 fibroblasts. In words: Microscopy of transformed fibroblasts (light microscopy, phalloidin-FITC). The class given is cell-based. The note with it: 100 μM, 48 hours. Here is the method: (§1) Non-transformed, WT v-Src transformed, and I338G v-Src transformed NIH-3T3 fibroblasts were grown in DMEM/10% BCS on tissue culture treated slides. v-Src expressing cells were treated with either 1.1% DMSO or 100 μM (^3g) in 1.1% DMSO. After forty-eight hours cells were photographed at 400× magnification on an Nikon TMS light microscope. Immediately following light microscopy, the cells were fixed for twenty minutes in 3.7% formaldehyde/PBS and permeabilized for sixty seconds in 0.2% Triton x-100 in PBS. Permeabilized cells were incubated with 200 ng/ml phalloidin-FITC/PBS for twenty minutes. Slides were rinsed with PBS and polymerized actin was visualized by fluorescence microscopy at 600× magnification on a Zeiss fluorescence microscope.

Assay [5] deals with WT v-Src transformed NIH-3T3 fibroblasts. The assay is described as above. It counts as cell-based. The note with it: 100 μM, 48 hours. As for the experimental part: as §1
Assay [6] concerns I338G v-Src. The assay can be described thus: biochemical. Details: species or system Rous sarcoma virus.
In assay [7] the target is T2, I338G v-Src (Rous sarcoma virus subgroup A, UniProt P00524, DEL77-225/I338G).
T2 construct: made in house; host or cells: E. coli DH5α (pGEX-KT)
The assay can be described thus: biochemical.

The next assay has as its target T3, T339G Fyn (Homo sapiens, UniProt P06241, T342G).
T3 construct: GST; made in house; host or cells: E. coli DH5α (pGEX-KT)
In words: In vitro kinase inhibition assay. It counts as biochemical.

Assay [8] deals with WT v-Src transformed NIH3T3 cells. In words: Inhibition of v-Src in NIH3T3 fibroblasts (phosphotyrosine blot). It counts as cell-based. The note with it: 100 μM, twelve hours. As for the experimental part:
(§2) Non-transformed NIH3T3 cells, WT v-Src transformed NIH3T3 cells, and I338G v-Src transformed NIH3T3 cells were incubated at 37° C. with 1.1% DMSO or 100 μM (3g) in 1.1% DMSO. After twelve hours, the cells were washed with PBS and lysed (lysis buffer: 1% Triton x-100, 50 mM tris (pH 7.4), 2 mM EDTA, 150 mM NaCl, […], 2 mM sodium orthovanadate, 10 mg/ml leupeptin, 10 mg/ml apoprotin). The lysate was clarified by centrifugation at 13,000 rpm for fifteen minutes. Lysate protein concentrations were normalized and equal volumes of the lysate were resolved electrophoretically and analyzed for phosphotyrosine content as described above.

The subject of assay [9] is I338G v-Src transformed NIH3T3 cells. The assay is described as above. It counts as cell-based. Here is the method:
as §2

In another assay the target is T4, PKCδ (Homo sapiens, UniProt Q05655).
T4 construct: 6-His; made in house; host or cells: Bac-to-Bac baculovirus system (pFastBac B vector)
The assay can be described thus: In vitro kinase inhibition assay. The class given is biochemical. Details: dose or concentration left out as unconfirmed. Here is the method: (§3) IC50's for non-src family kinases were measured equivalently with the following exceptions. […] An optimized Abl substrate, […] (SEQ ID NO: 18), 133 mg/ml) was used for Abl assays.

In the next assay the target is T5, PKA (Homo sapiens, UniProt P17612).
T5 construct: purchased Pierce
In words: In vitro kinase inhibition assay. The note with it: concentrations up to 300 mM. It counts as biochemical. Here is the method:
as §3

T3 sequence (P06241 1-534 isoform P06241-2 T339G): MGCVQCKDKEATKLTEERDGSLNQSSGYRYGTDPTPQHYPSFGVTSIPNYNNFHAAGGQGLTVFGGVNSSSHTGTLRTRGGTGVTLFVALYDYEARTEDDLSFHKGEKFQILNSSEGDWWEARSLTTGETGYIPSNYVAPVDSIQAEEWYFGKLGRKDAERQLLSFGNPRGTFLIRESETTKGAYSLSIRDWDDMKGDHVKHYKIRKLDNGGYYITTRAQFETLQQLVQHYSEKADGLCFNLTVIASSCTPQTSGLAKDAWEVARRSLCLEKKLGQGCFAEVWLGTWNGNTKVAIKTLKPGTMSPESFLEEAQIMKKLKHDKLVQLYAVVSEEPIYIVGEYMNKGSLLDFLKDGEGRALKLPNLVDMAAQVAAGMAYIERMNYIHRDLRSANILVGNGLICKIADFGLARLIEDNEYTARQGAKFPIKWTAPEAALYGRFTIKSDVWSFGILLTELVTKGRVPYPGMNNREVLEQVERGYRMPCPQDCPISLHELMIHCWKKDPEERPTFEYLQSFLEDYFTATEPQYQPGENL
Sequence of wild-type Fyn (P06241 whole entry, species assumed): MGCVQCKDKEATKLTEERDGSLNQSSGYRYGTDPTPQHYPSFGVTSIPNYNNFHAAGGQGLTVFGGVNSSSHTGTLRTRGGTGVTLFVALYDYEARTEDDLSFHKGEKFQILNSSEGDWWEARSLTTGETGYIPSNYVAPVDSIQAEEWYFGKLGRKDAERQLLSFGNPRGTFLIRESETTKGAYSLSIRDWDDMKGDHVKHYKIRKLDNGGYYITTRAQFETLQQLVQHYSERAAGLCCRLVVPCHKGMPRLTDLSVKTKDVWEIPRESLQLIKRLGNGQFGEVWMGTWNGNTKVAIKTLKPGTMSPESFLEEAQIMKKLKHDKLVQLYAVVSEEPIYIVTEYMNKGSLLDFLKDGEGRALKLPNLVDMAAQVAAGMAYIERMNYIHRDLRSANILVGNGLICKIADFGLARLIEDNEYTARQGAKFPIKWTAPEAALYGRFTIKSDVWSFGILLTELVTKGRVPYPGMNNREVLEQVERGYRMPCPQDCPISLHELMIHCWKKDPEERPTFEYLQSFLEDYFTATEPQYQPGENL
T4 sequence (Q05655 whole entry): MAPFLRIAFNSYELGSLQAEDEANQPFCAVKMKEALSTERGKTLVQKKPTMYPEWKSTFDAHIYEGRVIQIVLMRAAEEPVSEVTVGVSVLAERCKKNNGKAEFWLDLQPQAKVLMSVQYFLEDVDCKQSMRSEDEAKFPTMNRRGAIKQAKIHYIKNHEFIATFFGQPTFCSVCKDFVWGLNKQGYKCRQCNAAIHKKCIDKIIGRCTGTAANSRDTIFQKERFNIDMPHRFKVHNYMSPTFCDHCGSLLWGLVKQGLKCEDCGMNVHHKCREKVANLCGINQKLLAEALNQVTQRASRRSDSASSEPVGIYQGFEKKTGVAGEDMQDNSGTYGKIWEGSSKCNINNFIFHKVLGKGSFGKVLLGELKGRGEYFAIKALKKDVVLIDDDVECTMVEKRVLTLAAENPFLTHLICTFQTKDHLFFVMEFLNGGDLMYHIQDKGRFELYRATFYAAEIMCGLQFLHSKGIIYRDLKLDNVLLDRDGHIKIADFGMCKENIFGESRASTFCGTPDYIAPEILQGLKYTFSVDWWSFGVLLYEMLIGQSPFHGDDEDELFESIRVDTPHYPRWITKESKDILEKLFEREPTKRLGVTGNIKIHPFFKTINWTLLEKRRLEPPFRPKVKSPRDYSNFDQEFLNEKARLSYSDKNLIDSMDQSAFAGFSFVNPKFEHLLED
T1 sequence (P06241 1-534 isoform P06241-2): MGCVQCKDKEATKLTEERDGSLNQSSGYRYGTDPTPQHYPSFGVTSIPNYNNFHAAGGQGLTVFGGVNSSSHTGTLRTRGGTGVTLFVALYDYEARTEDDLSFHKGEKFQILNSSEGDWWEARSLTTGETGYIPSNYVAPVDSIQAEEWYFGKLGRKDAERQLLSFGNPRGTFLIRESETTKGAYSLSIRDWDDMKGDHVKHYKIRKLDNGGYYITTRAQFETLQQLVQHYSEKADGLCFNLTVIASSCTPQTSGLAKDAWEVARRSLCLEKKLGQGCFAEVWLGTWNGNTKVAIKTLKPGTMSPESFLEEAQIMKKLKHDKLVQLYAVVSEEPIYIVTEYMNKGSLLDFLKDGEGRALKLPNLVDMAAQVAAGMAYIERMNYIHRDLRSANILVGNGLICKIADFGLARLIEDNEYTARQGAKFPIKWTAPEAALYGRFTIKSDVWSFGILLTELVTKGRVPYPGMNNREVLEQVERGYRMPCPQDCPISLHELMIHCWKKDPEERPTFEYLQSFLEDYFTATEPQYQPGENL

Take `CC(C)(C)n1nc(-c2ccccc2)c2c(NC(=O)C3CCCC3)ncnc21` [Analog 3b, 4-cyclopentylamido-1-tert-butyl-3-phenylpyrazolo[3,4]pyrimidine]: the phosphoprotein band pattern entry in assay [1] is “does not inhibit wild type v-Src kinase”. The “36 kDa phosphoprotein band” value in [2] (100 μM) is “lost after treatment”. In addition, the “inhibitor concentration at which phosphorylation of the 36 kDa band reappears” value in assay [2] (inhibitor diluted) was less than 5 pM. Further, at wild-type Fyn, the concentration for half-maximal inhibition (IC50) is more than 400000 nM.

`CC(C)(C)n1nc(-c2ccccc2)c2c(N)ncnc21` [(2), 4-amino-1-tert-butyl-3-phenylpyrazolo(3,4-d)pyrimidine, reference compound]: the “inhibition of WT Fyn (in words)” value on WT Fyn is given as “highly potent (low nM)”. Besides, in [3], the “phosphotyrosine pattern of B cell stimulation” value is recorded as “significant reduction in tyrosine phosphorylation”.

In the case of `CC(C)(C)c1ccc(C(=O)Nc2ncnc3c2c(-c2ccccc2)nn3C(C)(C)C)cc1` [Analog 3g, 4-(p-tert-butyl)benzamido-1-tert-butyl-3-phenylpyrazolo[3,4-d]pyrimidine], the “polymerized actin pattern (phalloidin-FITC)” value in assay [4] (fluorescence microscopy) is on record as “defined polymerized actin strings; also recorded: selectively regain actin stress fibers”; in [5] (fluorescence microscopy), “indistinguishable from untreated WT cells”. The cell morphology result is “dramatic changes in cell morphology which are consistent with the reversal of transformation; also recorded: selectively acquire a flattened morphology” in assay [4] (light microscopy); “prototypical rounded morphology and overlapping growth patterns of transformed cells” in assay [5] (light microscopy). In the assay on I338G v-Src [6] (I338G v-Src vs WT Fyn), the “selectivity for engineered v-Src over WT Fyn” value is “over 700 times”. In the assay on I338G v-Src [6] (I338G v-Src vs WT v-Src), the “selectivity for mutant v-Src as compared to wild type” value is “at least a thousand-fold”. Further, the IC50 is 430 nM on I338G v-Src [7]; 830 nM against T339G Fyn; 50000 nM in assay [9] (Mus musculus, NIH3T3, read-out: IC50 for p36 phosphotyrosine signal). In addition, the Ki at I338G v-Src [7] was approximately 400 nM. Also, the mode of inhibition result at I338G v-Src [7] (Lineweaver-Burk analysis) is “competitively with respect to ATP”. At T339G Fyn, the “selectivity for T339G Fyn over WT Fyn” value is “greater than 300 fold”. Moreover, the “tyrosine phosphorylation in WT v-Src infected cells” value in assay [8] is recorded as “no loss of tyrosine phosphorylation”. For the same molecule, in [9], the “cellular IC50 relative to the in vitro value” is on record as “roughly one-hundred times”. For the same molecule, the “cellular level of phosphotyrosine” value in assay [9] (100 μM, twelve hours) is on record as “moderate overall decrease”. For the same molecule, in assay [9] (100 μM, twelve hours), the “tyrosine phosphorylation of p36” value was “dramatic diminution; also recorded: blocks p36 phosphorylation”. In addition, the “inhibition of PKCδ” value at PKCδ is listed as “not detectably inhibited”. Also, on PKA, the “inhibition of PKA” value is given as “not detectably inhibited”.

For the origin of these results see patent publication US7049116B2, “Engineered protein kinases which can utilize modified nucleotide triphosphate substrates” (Princeton University, priority 1997, dated 2006).
